According to ChEMBL document CHEMBL4665836, “Overcoming β-Lactam resistance in Pseudomonas aeruginosa using non-canonical tobramycin-based antibiotic adjuvants” (2020):

What was measured:
Assay type in all cases: functional
Pseudomonas aeruginosa [1] = assay: Potentiation of ceftazidime-induced antibacterial activity against carbapenem-resistant Pseudomonas aeruginosa 264-104354 clinical isolate assessed as ceftazidime MIC at 8.7 uM by checkerboard assay (reference value: 128 ug/ml)
Pseudomonas aeruginosa [2] = assay: Potentiation of ceftazidime-induced antibacterial activity against carbapenem and colistin-resistant Pseudomonas aeruginosa 91433 clinical isolate assessed as ceftazidime MIC at 8.7 uM by checkerboard assay (reference value: 4 ug/ml)
Pseudomonas aeruginosa [3] = assay: Potentiation of ceftazidime-induced antibacterial activity against carbapenem-resistant Pseudomonas aeruginosa 88949 clinical isolate assessed as ceftazidime MIC at 8.7 uM by checkerboard assay (reference value: 64 ug/ml)
Pseudomonas aeruginosa [4] = assay: Potentiation of aztreonam-induced antibacterial activity against carbapenem and colistin-resistant Pseudomonas aeruginosa 91433 clinical isolate assessed as aztreonam MIC at 8.7 uM by checkerboard assay (reference value: 16 ug/ml)
Pseudomonas aeruginosa [5] = assay: Potentiation of ceftazidime-induced antibacterial activity against carbapenem-resistant Pseudomonas aeruginosa PAO750 harboring mexAB-oprM/mexCD-oprJ/mexEF-oprN/mexJK/mexXY/opmH efflux deficient mutant assessed as ceftazidime MIC at 8.7 uM by checkerboard assay (reference value: 0.5 ug/ml)
Pseudomonas aeruginosa [6] = assay: Potentiation of aztreonam-induced antibacterial activity against wild-type Pseudomonas aeruginosa PAO1 assessed as aztreonam MIC at 8.7 uM by checkerboard assay (reference value: 4 ug/ml)
Pseudomonas aeruginosa [7] = assay: Potentiation of ceftazidime-induced antibacterial activity against carbapenem-resistant Pseudomonas aeruginosa 108590 clinical isolate assessed as ceftazidime MIC at 8.7 uM by checkerboard assay (reference value: 32 ug/ml)
Pseudomonas aeruginosa [8] = assay: Potentiation of aztreonam-induced antibacterial activity against carbapenem-resistant Pseudomonas aeruginosa 264-104354 clinical isolate assessed as aztreonam MIC at 8.7 uM by checkerboard assay (reference value: 32 ug/ml)
Pseudomonas aeruginosa [9] = assay: Potentiation of ceftazidime-induced antibacterial activity against carbapenem and colistin-resistant Pseudomonas aeruginosa 114228 clinical isolate assessed as ceftazidime MIC at 8.7 uM by checkerboard assay (reference value: 8 ug/ml)
Pseudomonas aeruginosa [10] = assay: Potentiation of ceftazidime-induced antibacterial activity against carbapenem-resistant Pseudomonas aeruginosa 259-96918 clinical isolate expressing metallo-beta-lactamase assessed as ceftazidime MIC at 8.7 uM by checkerboard assay (reference value: 512 ug/ml)
Pseudomonas aeruginosa [11] = assay: Potentiation of aztreonam-induced antibacterial activity against carbapenem-resistant Pseudomonas aeruginosa 100036 clinical isolate assessed as aztreonam MIC at 8.7 uM by checkerboard assay (reference value: 16 ug/ml)
Pseudomonas aeruginosa [12] = assay: Potentiation of ceftazidime-induced antibacterial activity against carbapenem-resistant Pseudomonas aeruginosa 86052 clinical isolate assessed as ceftazidime MIC at 8.7 uM by checkerboard assay (reference value: 64 ug/ml)
Pseudomonas aeruginosa [13] = assay: Potentiation of ceftazidime-induced antibacterial activity against carbapenem and colistin-resistant Pseudomonas aeruginosa 101243 clinical isolate assessed as ceftazidime MIC at 8.7 uM by checkerboard assay (reference value: 64 ug/ml)

Compound `NC[C@H]1O[C@H](O[C@H]2[C@H](OCCCCCCCCN3CCCNCCNCCCNCC3)[C@@H](O[C@H]3O[C@H](CO)[C@@H](O)[C@H](N)[C@H]3O)[C@H](N)C[C@@H]2N)[C@H](N)C[C@@H]1O.O=C(O)C(F)(F)F.O=C(O)C(F)(F)F.O=C(O)C(F)(F)F.O=C(O)C(F)(F)F.O=C(O)C(F)(F)F.O=C(O)C(F)(F)F.O=C(O)C(F)(F)F.O=C(O)C(F)(F)F.O=C(O)C(F)(F)F` has an MIC (Pseudomonas aeruginosa [1]) of 32 µg/mL, an MIC (Pseudomonas aeruginosa [2]) of 2 µg/mL and an MIC (Pseudomonas aeruginosa [3]) of 16 µg/mL. It also gave an MIC (Pseudomonas aeruginosa [4]) of 16 µg/mL, an MIC (Pseudomonas aeruginosa [5]) of 0.06 µg/mL and an MIC (Pseudomonas aeruginosa [6]) of 0.25 µg/mL. For the same compound, the MIC (Pseudomonas aeruginosa [7]) was 8 µg/mL, the MIC (Pseudomonas aeruginosa [8]) was 8 µg/mL and the MIC (Pseudomonas aeruginosa [9]) was 1 µg/mL. It also gave an MIC (Pseudomonas aeruginosa [10]) of 64 µg/mL, an MIC (Pseudomonas aeruginosa [11]) of 2 µg/mL and an MIC (Pseudomonas aeruginosa [12]) of 64 µg/mL. The MIC (Pseudomonas aeruginosa [13]) was 8 µg/mL.
